Here are results for seven compounds from patent US10722500B2, “Gossypol 7-N-isatin Schiff base compounds with antitumor activities and a method of preparing the same” (SHAANXI PANLONG PHARMACEUTICAL GROUP LIMITED BY SHARE LTD., priority 2018, dated 2020).

Series [1] relates to human gastric cancer cells (SGC-7901). Description: MTT tumor cell proliferation inhibition test, SGC-7901. In kind it is cell-based. The following applies: SGC-7901 cells, 48 hours treatment, read-out: Half Inhibitory Concentration IC50 SGC-7901. The method, then: (§1) The compounds of the present invention were subjected to tumor cell proliferation inhibition test, and conventional MTT method was used.
(§2) Cell lines: human hepatoma cells (HepG2), human lung cancer cells (A-549), human gastric cancer cells (SGC-7901). The culture medium was DMEM+15% NBS+double antibody.
(§3) Sample solution preparation: after dissolving with DMSO (Merck), PBS (−) was added to obtain 100 μmol/L solution or homogeneous suspension. The solution was diluted with PBS (−) in DMSO to a final concentration of 0.1, 1, 10, 20, 40, 60, 80, 100 μmol/L.
(§4) Gossypol was used as control solution, prepared under the same condition.
(§5) Cell culture: adherent growth Tumor cells were cultured in 1640 medium containing 10% inactivated neonatal bovine serum and penicillin, streptomycin (1 million U/L), placed in carbon dioxide incubator at 37° C., 5% CO2, and saturated humidity. Cells were treated serially passaged 2-3 times. The first culture was washed with PBS 2 times, and digested with trypsin. Fresh culture medium was added evenly, cells were adjusted to a appropriate concentration and transferred into a new culture flask. Cell in an exponential phase were chosen for the tests.
(§6) MTT Assay for Cell Viability and IC50 Determination
(§7) Experimental Principle: Living cells mitochondria in the dehydrogenase can reduce yellow MTT to water-insoluble blue-violet product MT (MTT formazan), deposited in the cells. The amount of production is proportional to the number of living cells. […] DMSO can dissolve blue violet crystals, and the color depth is proportional to the amount contained, so the absorbance measured by the microplate reader can reflect the cell viability.
(§8) Methods: The exponential phase cells were digested and counted and seeded in 96-well plates at a density of 2×10^4/mL at 100 μl per well. After 24 hours of incubation, the cells to be tested were treated with 0.1, 1, 10, 20, 40, 60, 80, 100 μmol/L of the compounds. Each experimental group had 5 wells in each concentration, and the culture medium containing 0.4% DMSO was used as control. After 48 hours, the supernatant was discarded, and 100 μl of MTT ((2-(4,5-dimethyl-2-thiazolyl)-3,5-diphenyl-2H-[…]) (1 mg/mL) was added to each well. After another 4 hours, the supernatant was discarded, and 100 μl of DMSO was added to each well. After mixing, the absorbance was measured at 570 nm using a microplate reader. An IC50 calculation software was used to determine the half inhibitory concentration (IC50).

The test system of series [2] is human lung cancer cells (A-549). Description: MTT tumor cell proliferation inhibition test, A-549. It is filed as cell-based. Conditions: A549 cells, 48 hours treatment, read-out: Half Inhibitory Concentration IC50 A549. The method, then: as §1, §2, §3, §4, §5, §6, §7, §8
The subject of series [3] is human hepatoma cells (HepG2). Description: MTT tumor cell proliferation inhibition test, HepG2. It is filed as cell-based. Conditions: read-out: Half Inhibitory Concentration IC50 HepG2. The method, then:
as §1, §2, §3, §4, §5, §6, §7, §8

In series [4] the test system is HepG2, A-549, SGC-7901 tumor cells. Description: MTT tumor cell proliferation inhibition test, summary over the three cell lines. In kind it is cell-based, human. The following applies: the three cell lines tested. The procedure: as §1, §2, §3, §4
Cell culture: adherent growth Tumor cells were cultured in 1640 medium containing 10% inactivated neonatal bovine serum and penicillin, streptomycin (1 million U/L), placed in carbon dioxide incubator at 37° C., 5% CO2, and saturated humidity. Cells were treated serially passaged 2-3 times. The first culture was washed with PBS 2 times, and digested with trypsin. Fresh culture medium was added evenly, cells were adjusted to a appropriate concentration and transferred into a new culture flask. […]
Experimental Principle: Living cells mitochondria in the dehydrogenase can reduce yellow MTT to water-insoluble blue-violet product MT (MTT formazan), deposited in the cells. […] DMSO can dissolve blue violet crystals, and the color depth is proportional to the amount contained, so the absorbance measured by the microplate reader can reflect the cell viability.
Methods: The exponential phase cells were digested and counted and seeded in 96-well plates at a density of 2×10^4/mL at 100 μl per well. […] After 48 hours, the supernatant was discarded, and 100 μl of MTT ((2-(4,5-dimethyl-2-thiazolyl)-3,5-diphenyl-2H-[…]) (1 mg/mL) was added to each well. After another 4 hours, the supernatant was discarded, and 100 μl of DMSO was added to each well. After mixing, the absorbance was measured at 570 nm using a microplate reader. An IC50 calculation software was used to determine the half inhibitory concentration (IC50).

The mark [5] stands for this setting: HepG2 cells, MTT, 48 hours treatment.

Molecules are shown by their SMILES. Read-outs that look alike come from different tables or passages of the source. Bounds are passed on as bounds.

The melting point is the temperature, or range, at which the solid turns liquid. As for `Cc1cc2c(C(C)C)c(O)c(O)c(/C=N/N=C3\C(=O)Nc4ncccc43)c2c(O)c1-c1c(C)cc2c(C(C)C)c(O)c(O)c(/C=N/N=C3/C(=O)Nc4ncccc43)c2c1O` [Compound 1, (3Z,3′E)-3,3′-(((1E,1′E)-(1,1′,6,6′,7,7′-hexahydroxy-5,5′-diisopropyl-3,3′-dimethyl-[2,2′-binaphthalene]-8,8′-diyl)bis(methanylylidene))bis(hydrazine-2,1-diylidene))bis(1,3-dihydro-2H-pyrrolo[2,3-b]pyridin-2-one)], the melting point came out at 186.5 °C. In addition, the IC50 in series [1] is greater than 100 µM. Further, the IC50 in series [2] is greater than 100 µM. Moreover, in series [3] (setting [5]), the IC50 was greater than 100 µM.

Take `Cc1cc2c(C(C)C)c(O)c(O)c(/C=N/N=C3\C(=O)N(C)c4ncccc43)c2c(O)c1-c1c(C)cc2c(C(C)C)c(O)c(O)c(/C=N/N=C3/C(=O)N(C)c4ncccc43)c2c1O` [Compound 2, (3Z,3′E)-3,3′-(((1E,1′E)-(1,1′,6,6′,7,7′-hexahydroxy-5,5′-diisopropyl-3,3′-dimethyl-[2,2′-binaphthalene]-8,8′-diyl)bis(methanylylidene))bis(hydrazine-2,1-diylidene))bis(1-methyl-1,3-dihydro-2H-pyrrolo[2,3-b]pyridin-2-one)]: the IC50 was greater than 100 µM in series [1], 11.2 ± 2.26 µM in series [2] and 12.5 ± 2.39 µM in series [3] (setting [5]). In addition, in series [4], the “antitumor activities (in words)” value is recorded as “good activities”.

As to `CCN1C(=O)/C(=N\N=C\c2c(O)c(O)c(C(C)C)c3cc(C)c(-c4c(C)cc5c(C(C)C)c(O)c(O)c(/C=N/N=C6/C(=O)N(CC)c7ncccc76)c5c4O)c(O)c23)c2cccnc21` [Compound 3, (3Z,3′E)-3,3′-(((1E,1′E)-(1,1′,6,6′,7,7′-hexahydroxy-5,5′-diisopropyl-3,3′-dimethyl-[2,2′-binaphthalene]-8,8′-diyl)bis(methanylylidene))bis(hydrazine-2,1-diylidene))bis(1-ethyl-1,3-dihydro-2H-pyrrolo[2,3-b]pyridin-2-one)], the results for the IC50 in series [1], in series [2] and in series [3] (setting [5]) were 13.4 ± 1.51 µM, 17.4 ± 0.79 µM and 9.92 ± 0.79 µM, respectively. Also, the “antitumor activities (in words)” value in series [4] was “good activities”.

In the case of `Cc1cc2c(C(C)C)c(O)c(O)c(/C=N/N=C3\C(=O)N(C(C)C)c4ncccc43)c2c(O)c1-c1c(C)cc2c(C(C)C)c(O)c(O)c(/C=N/N=C3/C(=O)N(C(C)C)c4ncccc43)c2c1O` [Compound 4, (3Z,3′E)-3,3′-(((1E,1′E)-(1,1′,6,6′,7,7′-hexahydroxy-5,5′-diisopropyl-3,3′-dimethyl-[2,2′-binaphthalene]-8,8′-diyl)bis(methanylylidene))bis(hydrazine-2,1-diylidene))bis(1-isopropyl-1,3-dihydro-2H-pyrrolo[2,3-b]pyridin-2-one)], the melting point worked out at 209.1 °C. For the same compound, the IC50 in series [1] was greater than 100 µM. Also, in series [2], the IC50 worked out at 74.1 ± 3.46 µM. Also, the IC50 in series [3] (setting [5]) was greater than 100 µM.

As for `Cc1cc2c(C(C)C)c(O)c(O)c(/C=N/N=C3\C(=O)N(Cc4ccccc4)c4ncccc43)c2c(O)c1-c1c(C)cc2c(C(C)C)c(O)c(O)c(/C=N/N=C3/C(=O)N(Cc4ccccc4)c4ncccc43)c2c1O` [Compound 5, (3Z,3′E)-3,3′-(((1E,1′E)-(1,1′,6,6′,7,7′-hexahydroxy-5,5′-diisopropyl-3,3′-dimethyl-[2,2′-binaphthalene]-8,8′-diyl)bis(methanylylidene))bis(hydrazine-2,1-diylidene))bis(1-benzyl-1,3-dihydro-2H-pyrrolo[2,3-b]pyridin-2-one)], the IC50 in series [1] is 12.3 ± 1.43 µM; in series [2], 10.1 ± 1.33 µM; in series [3] (setting [5]) it was 7.94 ± 0.85 µM. For the same compound, the “antitumor activities (in words)” value in series [4] is “excellent antitumor activities”.

The compound `CON1C(=O)/C(=N\N=C\c2c(O)c(O)c(C(C)C)c3cc(C)c(-c4c(C)cc5c(C(C)C)c(O)c(O)c(/C=N/N=C6/C(=O)N(OC)c7ncccc76)c5c4O)c(O)c23)c2cccnc21` [Compound 6, (3Z,3′E)-3,3′-(((1E,1′E)-(1,1′,6,6′,7,7′-hexahydroxy-5,5′-diisopropyl-3,3′-dimethyl-[2,2′-binaphthalene]-8,8′-diyl)bis(methanylylidene))bis(hydrazine-2,1-diylidene))bis(1-methoxy-1,3-dihydro-2H-pyrrolo[2,3-b]pyridin-2-one)] had a melting point of 201.9 °C. Besides, the IC50 in series [1] was greater than 100 µM. For the same compound, the IC50 in series [2] worked out at 62.9 ± 2.15 µM. The IC50 in series [3] (setting [5]) was greater than 100 µM.

Turning to `Cc1cc2c(C(C)C)c(O)c(O)c(C=O)c2c(O)c1-c1c(C)cc2c(C(C)C)c(O)c(O)c(C=O)c2c1O` [Gossypol], the IC50 in series [3] (HepG2, 48 h) worked out at 955 ± 0.41 µM.
